Experimental data reported in PubChem BioAssay (NCI).
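Five concentrations, 48 hours, 96-well plates. Abbreviation: GI50, concentration required for 50% inhibition of growth. TGI: concentration producing complete growth inhibition.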

How the values were obtained:
Assay in all cases: NCI tumour cell line growth inhibition, 48 h
[1] = test system: 786-0 renal
[2] = test system: A498 renal
[3] = test system: A549 NSCLC
[4] = test system: ACHN renal
[5] = test system: BT-549 breast
[6] = test system: CAKI-1 renal
[7] = test system: CCRF-CEM leukemia
[8] = test system: COLO 205 colon
[9] = test system: DU-145 prostate
[10] = test system: EKVX NSCLC
[11] = test system: HCC-2998 colon
[12] = test system: HCT-116 colon
[13] = test system: HCT-15 colon
[14] = test system: HL-60(TB) leukemia
[15] = test system: HOP-62 NSCLC
[16] = test system: HOP-92 NSCLC
[17] = test system: HS 578T breast
[18] = test system: HT29 colon
[19] = test system: IGROV1 ovarian
[20] = test system: K-562 leukemia
[21] = test system: KM12 colon
[22] = test system: LOX IMVI melanoma
[23] = test system: M14 melanoma
[24] = test system: MALME-3M melanoma
[25] = test system: MCF7 breast
[26] = test system: MDA-MB-231 breast
[27] = test system: MDA-MB-435
[28] = test system: MDA-MB-468 breast
[29] = test system: MOLT-4 leukemia
[30] = test system: NCI-H226 lung
[31] = test system: NCI-H23 lung
[32] = test system: NCI-H460 lung
[33] = test system: NCI-H522 lung
[34] = test system: NCI/ADR-RES ovarian
[35] = test system: OVCAR-3 ovarian
[36] = test system: OVCAR-4 ovarian
[37] = test system: OVCAR-5 ovarian
[38] = test system: OVCAR-8 ovarian
[39] = test system: PC-3 prostate
[40] = test system: RPMI-8226 leukemia
[41] = test system: RXF 393 renal
[42] = test system: SF-268 CNS
[43] = test system: SF-295 CNS
[44] = test system: SF-539 CNS
[45] = test system: SK-MEL-2 melanoma
[46] = test system: SK-MEL-28 melanoma
[47] = test system: SK-MEL-5 melanoma
[48] = test system: SK-OV-3 ovarian
[49] = test system: SN12C renal
[50] = test system: SNB-19 CNS
[51] = test system: SNB-75 CNS
[52] = test system: SW-620 colon
[53] = test system: T-47D breast
[54] = test system: TK-10 renal
[55] = test system: U251 CNS
[56] = test system: UACC-257 melanoma
[57] = test system: UACC-62 melanoma
[58] = test system: UO-31 renal

`CN(C)c1nc(NCCNS(=O)(=O)c2ccc(C(=O)/C=C/c3ccc(C(F)(F)F)cc3)cc2)nc(Nc2ccc(F)cc2)n1` showed a GI50 [1] of 10.6 µM, a TGI [1] of 22.7 µM and a GI50 [2] of 13 µM. The TGI [2] was 26.2 µM, the GI50 [3] was 10 µM and the TGI [3] was 25.4 µM. For the same compound, the GI50 [4] was 5.08 µM, the TGI [4] was 17.4 µM and the GI50 [5] was 12.7 µM. For the same compound, the TGI [5] was 25.6 µM, the GI50 [6] was 6.46 µM and the TGI [6] was 19.7 µM. It also gave a GI50 [7] of 3.79 µM, a TGI [7] of over 100 µM and a GI50 [8] of 11.2 µM. For the same compound, the TGI [8] was 24.8 µM, the GI50 [9] was 11.2 µM and the TGI [9] was 24 µM. For the same compound, the GI50 [10] was 4.2 µM, the TGI [10] was 15.7 µM and the GI50 [11] was 1.77 µM. It also gave a TGI [11] of 3.61 µM, a GI50 [12] of 1.68 µM and a TGI [12] of 3.13 µM. For the same compound, the GI50 [13] was 3.22 µM, the TGI [13] was 11.9 µM and the GI50 [14] was 3.82 µM. It also gave a TGI [14] of 30 µM, a GI50 [15] of 13.6 µM and a TGI [15] of 27.7 µM. The GI50 [16] was 6.15 µM, the TGI [16] was 20.7 µM and the GI50 [17] was 12.7 µM. For the same compound, the TGI [17] was 49.5 µM, the GI50 [18] was 1.91 µM and the TGI [18] was 3.95 µM. For the same compound, the GI50 [19] was 12.3 µM, the TGI [19] was 24.9 µM and the GI50 [20] was 2.98 µM. For the same compound, the TGI [20] was 30.4 µM, the GI50 [21] was 2.38 µM and the TGI [21] was 6 µM. The GI50 [22] was 1.86 µM, the TGI [22] was 3.84 µM and the GI50 [23] was 3.39 µM. The TGI [23] was 12.9 µM, the GI50 [24] was 14.2 µM and the TGI [24] was 27.5 µM. For the same compound, the GI50 [25] was 1.7 µM, the TGI [25] was 3.56 µM and the GI50 [26] was 8.38 µM. For the same compound, the TGI [26] was 20.8 µM, the GI50 [27] was 2.86 µM and the TGI [27] was 8.49 µM. It also gave a GI50 [28] of 4.53 µM, a TGI [28] of 17 µM and a GI50 [29] of 2.9 µM. It also gave a TGI [29] of 9.61 µM, a GI50 [30] of 7.82 µM and a TGI [30] of 24.7 µM. For the same compound, the GI50 [31] was 11.2 µM, the TGI [31] was 24.2 µM and the GI50 [32] was 4.09 µM. For the same compound, the TGI [32] was 14.9 µM, the GI50 [33] was 11.2 µM and the TGI [33] was 24.7 µM. It also gave a GI50 [34] of 10.7 µM, a TGI [34] of 23.7 µM and a GI50 [35] of 2.04 µM. The TGI [35] was 5.61 µM, the GI50 [36] was 8.78 µM and the TGI [36] was 23.1 µM. For the same compound, the GI50 [37] was 12 µM, the TGI [37] was 24.4 µM and the GI50 [38] was 12.3 µM. It also gave a TGI [38] of 30.6 µM, a GI50 [39] of 4.15 µM and a TGI [39] of 18.2 µM. It also gave a GI50 [40] of 3 µM, a TGI [40] of over 100 µM and a GI50 [41] of 3.7 µM. The TGI [41] was 16 µM, the GI50 [42] was 7.71 µM and the TGI [42] was 22.5 µM. The GI50 [43] was 11.3 µM, the TGI [43] was 23.5 µM and the GI50 [44] was 10.7 µM. The TGI [44] was 22.5 µM, the GI50 [45] was 9.45 µM and the TGI [45] was 22.3 µM. The GI50 [46] was 10.4 µM, the TGI [46] was 22.2 µM and the GI50 [47] was 10.4 µM. It also gave a TGI [47] of 22.2 µM, a GI50 [48] of 13.7 µM and a TGI [48] of 27.8 µM. It also gave a GI50 [49] of 6.36 µM, a TGI [49] of 19.9 µM and a GI50 [50] of 12 µM. The TGI [50] was 24.3 µM, the GI50 [51] was 8.41 µM and the TGI [51] was 22.7 µM. It also gave a GI50 [52] of 2.24 µM, a TGI [52] of 5.06 µM and a GI50 [53] of 5.16 µM. For the same compound, the TGI [53] was 19.6 µM, the GI50 [54] was 17.4 µM and the TGI [54] was 32 µM. For the same compound, the GI50 [55] was 3.42 µM, the TGI [55] was 13 µM and the GI50 [56] was 11 µM. For the same compound, the TGI [56] was 25 µM, the GI50 [57] was 6.24 µM and the TGI [57] was 19.4 µM. It also gave a GI50 [58] of 6.41 µM and a TGI [58] of 19.9 µM.
